From patent publication US20100272717A1, “COMBINATIONS OF THERAPEUTIC AGENTS FOR TREATING CANCER” (NOVARTIS AG, priority 2007, published 2010)

What was measured:
Type in all cases: in vivo
[1] = test system: A549 human non-small cell lung carcinoma xenograft; assay: A549 human non-small cell lung carcinoma xenograft model, anti-tumor activity and tolerability
Source text: (§1) Interactions of combinations can be approximated using a combination index presented by Clark (Breast Cancer Research and Treatment 46, 255-278 (1997)). Taking A to be the activity (T/C) of compound A given alone; B to be the activity of compound B given alone; C the activity in the vehicle controls and AB to be the activity in the combination. A+B, the following formulae can be applied: synergy−(AB)/C<(A/C)×B/C), additive−(AB)/C=(A/C)×(B/C) and antagonistic−(AB)/C>(A/C)×(B/C). […] For example if, the triple combination of A+B+C is to be compared to the activity of the three agents given alone then taking D to be the activity of the vehicle controls the formula defining synergy would be (ABC)/D<(A/D)×(B/D)×(C/D).
The effects of Compound A and Compound B are evaluated for their anti-tumor activity using the A549 human non-small cell lung carcinoma xenograft model.
The effects of 5,6-dimethylxanthenone-4-acetic acid (Compound A) and 4-amino-5-fluoro-3-[5-(4-methylpiperazin-1-yl)-1H-benzimidazol-2-yl]quinolin-2(1H)-one (Compound C) are evaluated for their anti-tumor activity using the A549 human non-small cell lung carcinoma xenograft model.
The effects of 5,6-dimethylxanthenone-4-acetic acid (Compound A) and everolimus are evaluated for their anti-tumor activity using the A549 human non-small cell lung carcinoma xenograft model.
The effect of 5,6-dimethylxanthenone-4-acetic acid (Compound A) and patupilone are evaluated for their anti-tumor activity using the A549 human non-small cell lung carcinoma xenograft model.

[2] = test system: MCF-7 human breast adenocarcinoma xenograft; assay: MCF-7 human breast adenocarcinoma xenograft model, anti-tumor activity and tolerability; details: for anti-tumor activity: FIG. 6 experiment, dose not stated
Source text: A+B, the following formulae can be applied: synergy−(AB)/C<(A/C)×B/C), additive−(AB)/C=(A/C)×(B/C) and antagonistic−(AB)/C>(A/C)×(B/C). […] For example if, the triple combination of A+B+C is to be compared to the activity of the three agents given alone then taking D to be the activity of the vehicle controls the formula defining synergy would be (ABC)/D<(A/D)×(B/D)×(C/D).

[3] = test system: MDA-MB-231 human breast adenocarcinoma xenograft; assay: MDA-MB-231 human breast adenocarcinoma xenograft model, anti-tumor activity and tolerability; details: FIG. 1
Method: The effect of 5,6-dimethylxanthenone-4-acetic acid (Compound A) and 2-methyl-2-[4-(3-methyl-2-oxo-8-quinolin-3-yl-2,3-dihydro-imidazo[4,5-c]quinolin-1-yl)-phenyl]-propionitrile (Compound B) are evaluated for their anti-tumor activity using the MDA-MB-231 human breast adenocarcinoma xenograft model.
as §1

[4] = test system: BT-474 human breast ductal carcinoma xenograft; assay: BT-474 human breast ductal carcinoma xenograft model, anti-tumor activity and tolerability; details: FIG. 7; Compound A 20 mg/kg intravenously on days 1, 5 and 9
Source text: as §1

C/C(=C\c1csc(C)n1)[C@@H]1C[C@@H]2O[C@]2(C)CCC[C@H](C)[C@H](O)[C@@H](C)C(=O)C(C)(C)[C@@H](O)CC(=O)O1 [patupilone, (1S,3S,7S,10R,11S,12S,16R,1′E)-7,11-dihydroxy-8,8,10,12,16-pentamethyl-3-[methyl-2-(2-methylthiazol-4-yl)-vinyl]-4,17-dioxabicyclo[14.1.0]heptadecane-5,9-dione, reference compound]
anti-tumor activity (tumor growth) ([1]; FIG. 5, patupilone 2 mg/kg intravenously): inhibition of tumor growth

CN1CCN(c2ccc3[nH]c(-c4c(N)c5c(F)cccc5[nH]c4=O)nc3c2)CC1 [Compound C, 4-amino-5-fluoro-3-[5-(4-methylpiperazin-1-yl)-1H-benzimidazol-2-yl]quinolin-2(1H)-one]
anti-tumor activity ([1]; in vivo): dose-dependent activity

CC(=O)O[C@@]12CO[C@@H]1C[C@H](O)[C@@]1(C)C(=O)[C@H](O)C3=C(C)[C@@H](OC(=O)[C@H](O)[C@@H](NC(=O)OC(C)(C)C)c4ccccc4)C[C@@](O)([C@@H](OC(=O)c4ccccc4)[C@H]21)C3(C)C [docetaxel, reference compound]
anti-tumor activity [2]: inhibition of tumor growth

bevacizumab: monoclonal antibody, marketed as AVASTIN
anti-tumor activity [2]: no anti-tumor activity

Cc1ccc2c(=O)c3cccc(CC(=O)O)c3oc2c1C [Compound A, 5,6-dimethylxanthenone-4-acetic acid]
anti-tumor activity (tumor growth) ([3]; Compound A 18.6 mg/kg intravenously on days 1, 5 and 9): inhibition of tumor growth
anti-tumor activity (tumor growth) ([2]; FIG. 6, Compound A 20 mg/kg intravenously on days 1, 5 and 9): inhibition of tumor growth
anti-tumor activity (tumor growth) [4]: inhibition of tumor growth
anti-tumor activity (tumor growth) ([1]; in vivo, ip, 15 mg/kg): inhibition of tumor growth

Cn1c(=O)n(-c2ccc(C(C)(C)C#N)cc2)c2c3cc(-c4cnc5ccccc5c4)ccc3ncc21 [Compound B, 2-methyl-2-[4-(3-methyl-2-oxo-8-quinolin-3-yl-2,3-dihydro-imidazo[4,5-c]quinolin-1-yl)-phenyl]-propionitrile]
anti-tumor activity (tumor growth) ([3]; Compound B alone, several dose levels): dose-dependent inhibition of tumor growth
anti-tumor activity ([1]; FIG. 2, Compound B alone, 20 mg/kg): shows activity
